Experimental data taken from patent publication US20230135093A1, “TRIAZOLYL DERIVATIVES AS GABA A ALPHA5 PAM” (Hoffmann-La Roche Inc., priority 2020, published 2023).

What was measured:
h-GABA-A α5β3γ2 [1] = target: T1, h-GABA-A α5β3γ2 (Homo sapiens, UniProt P18507+P31644); test: [3H]flumazenil competition binding assay on membranes of HEK293 cells expressing GABAA receptors; details: Table 1; displacement of [3H]-Flumazenil (0.5 nM), HEK293 cells expressing human receptors, means of two determinations
T1 construct: expressed in transfected cells; host or cells: Xenopus laevis oocytes, micro-injected with subunit RNA
Outline: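 Competition for [3H]flumazenil (0.5 nM for α5 subunits) was measured at equilibrium (1 h, 4 °C, Krebs-tris buffer pH 7.5) on transiently transfected HEK293 membranes bearing human α5β3γ2 receptors, with 10^−5 M diazepam defining nonspecific binding. Ki values were derived from filtration and scintillation counting, averaged over duplicates.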

h-GABA-A α5β3γ2 [2] = target: T1, h-GABA-A α5β3γ2; test: Two-electrode voltage clamp electrophysiology in Xenopus oocytes expressing GABAA receptors (modulation of GABA EC20 current); format: cell-based; details: Table 1; for Efficacy (GABA) %: % modulation of GABA EC20 = 100*(Fold increase-1); for Fold increase h-GABA-A α5β3γ2 oocyte: Xenopus oocytes, GABA EC20, test compound at approximatively 30 fold its Ki
Outline: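 GABA EC20 currents in human α5β3γ2-expressing Xenopus oocytes, voltage-clamped at −80 mV (room temperature, pH 7.4), measured with and without compound at ~30× Ki applied 0.5 min into the second GABA pulse. % modulation = 100×(fold increase−1), taken from the extremum of the current ratio trace; at least 3 oocytes per concentration.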

Compound | Ki (h-GABA-A α5β3γ2 [1]) [nM] | Efficacy (GABA) % (h-GABA-A α5β3γ2 [2]) [%] | Fold increase h-GABA-A α5β3γ2 oocyte (h-GABA-A α5β3γ2 [2])
COc1ccc(-c2cnn(Cc3c(C)nnn3-c3ccc(Cl)cc3F)c(=O)c2)cc1 [Example 56, 2-((3-(4-chloro-2-fluoro-phenyl)-5-methyl-triazol-4-yl)methyl)-5-(4-methoxyphenyl)pyridazin-3-one] | 21.6 | 50 | 1.5
Cc1nnn(-c2ccc(Cl)cc2F)c1Cn1ncc(-c2ccnc(C(F)(F)F)c2)cc1=O [Example 57, 2-((3-(4-chloro-2-fluoro-phenyl)-5-methyl-triazol-4-yl)methyl)-5-(2-(trifluoromethyl)-4-pyridyl)pyridazin-3-one] | 43 | 64 | 1.64
Cn1nnc(-c2ccc(Cl)cc2)c1Cn1ncc(N2CC(OCC(F)(F)F)C2)cc1=O [Example 59, 2-[[5-(4-chlorophenyl)-3-methyl-triazol-4-yl]methyl]-5-[3-(2,2,2-trifluoro-ethoxy)azetidin-1-yl]pyridazin-3-one] | 37.1 | 81 | 1.81
Cn1nnc(-c2ccc(Cl)cc2)c1Cn1ncc(N2CC(OCC(F)F)C2)cc1=O [Example 60, 2-[[5-(4-chlorophenyl)-3-methyl-triazol-4-yl]methyl]-5-[3-(2,2-difluoro-ethoxy)azetidin-1-yl]pyridazin-3-one] | 45 | 76 | 1.76
Cc1nnn(-c2ccc(Cl)cc2F)c1Cn1ncc(-c2cnn(C3CC3)c2)cc1=O [Example 65, 2-((3-(4-chloro-2-fluoro-phenyl)-5-methyl-triazol-4-yl)methyl)-5-(1-cyclopropylpyrazol-4-yl)pyridazin-3-one] | 47.5 | 42 | 1.42
CCOc1ncc(-c2cnn(Cc3c(-c4ccc(Cl)cc4F)nnn3C)c(=O)c2)cc1C [Example 66, 2-((5-(4-chloro-2-fluoro-phenyl)-3-methyl-triazol-4-yl)methyl)-5-(6-ethoxy-5-methyl-3-pyridyl)pyridazin-3-one] | 19 | 143 | 2.43
COc1ncc(-c2cnn(Cc3c(C)nnn3-c3ccc(Cl)cc3F)c(=O)c2)cc1Cl [Example 68, 2-((3-(4-chloro-2-fluoro-phenyl)-5-methyl-triazol-4-yl)methyl)-5-(5-chloro-6-methoxy-3-pyridyl)pyridazin-3-one] | 32.2 | 130 | 2.3
CC(C)OC1CN(c2cnn(Cc3c(-c4ccc(C(F)(F)F)cc4F)nnn3C)c(=O)c2)C1 [Example 70, 2-[[5-[2-fluoro-4-(trifluoromethyl)phenyl]-3-methyl-triazol-4-yl]methyl]-5-(3-isopropoxyazetidin-1-yl)pyridazin-3-one] | 25 | 71 | 1.71
Cn1nnc(-c2ccc(C(F)(F)F)cc2F)c1Cn1ncc(N2CC(OC(F)F)C2)cc1=O [Example 71, 5-[3-(difluoromethoxy)azetidin-1-yl]-2-[[5-[2-fluoro-4-(trifluoromethyl)phenyl]-3-methyl-triazol-4-yl]methyl]pyridazin-3-one] | 12.2 | 75 | 1.75
CCOC1CN(c2cnn(Cc3c(-c4ccc(C(F)(F)F)cc4F)nnn3C)c(=O)c2)C1 [Example 72, 5-(3-ethoxyazetidin-1-yl)-2-[[5-[2-fluoro-4-(trifluoromethyl)phenyl]-3-methyl-triazol-4-yl]methyl]pyridazin-3-one] | 19.4 | 70 | 1.7
Cn1nnc(-c2ccc(C(F)(F)F)cc2F)c1Cn1ncc(N2CC3(CCCO3)C2)cc1=O [Example 75, 2-[[5-[2-fluoro-4-(trifluoromethyl)phenyl]-3-methyl-triazol-4-yl]methyl]-5-(5-oxa-2-azaspiro[3.4]octan-2-yl)pyridazin-3-one] | 23 | 73 | 1.73

Now those with a lower Ki (h-GABA-A α5β3γ2 [1]), led by results:

Ki (h-GABA-A α5β3γ2 [1]) [nM] | Efficacy (GABA) % (h-GABA-A α5β3γ2 [2]) [%] | Fold increase h-GABA-A α5β3γ2 oocyte (h-GABA-A α5β3γ2 [2]) | Compound
11.8 | 86 | 1.86 | Cn1nnc(-c2ccc(C(F)(F)F)cc2F)c1Cn1ncc(N2CC(OCC(F)(F)F)C2)cc1=O [Example 74, 2-[[5-[2-fluoro-4-(trifluoromethyl)phenyl]-3-methyl-triazol-4-yl]methyl]-5-[3-(2,2,2-trifluoro-ethoxy)azetidin-1-yl]pyridazin-3-one]
11.6 | 115 | 2.15 | Cn1nnc(-c2ccc(C(F)(F)F)cc2F)c1Cn1ncc(N2CC(OCC(F)F)C2)cc1=O [Example 76, 5-[3-(2,2-difluoroethoxy)azetidin-1-yl]-2-[[5-[2-fluoro-4-(trifluoromethyl)phenyl]-3-methyl-triazol-4-yl]methyl]pyridazin-3-one]
11.2 | 76 | 1.76 | Cn1cc(-c2cnn(Cc3c(-c4ccc(Cl)cc4F)nnn3C)c(=O)c2)cn1 [Example 64, 2-((5-(4-chloro-2-fluoro-phenyl)-3-methyl-triazol-4-yl)methyl)-5-(1-methylpyrazol-4-yl)pyridazin-3-one]
11 | 55 | 1.55 | Cn1nnc(-c2ccc(Cl)cc2F)c1Cn1ncc(-c2cnn(C3CC3)c2)cc1=O [Example 67, 2-((5-(4-chloro-2-fluoro-phenyl)-3-methyl-triazol-4-yl)methyl)-5-(1-cyclopropylpyrazol-4-yl)pyridazin-3-one]
8.2 | 50 | 1.5 | COc1ccc(-c2cnn(Cc3c(-c4ccc(Cl)cc4F)nnn3C)c(=O)c2)cn1 [Example 62, 2-((5-(4-chloro-2-fluoro-phenyl)-3-methyl-triazol-4-yl)methyl)-5-(6-methoxy-3-pyridyl)pyridazin-3-one]
7.7 | 90 | 1.9 | Cn1nnc(-c2ccc(Cl)cc2F)c1Cn1ncc(N2CC(Oc3cnccn3)C2)cc1=O [Example 73, 2-[[5-(4-chloro-2-fluoro-phenyl)-3-methyl-triazol-4-yl]methyl]-5-(3-pyrazin-2-yloxyazetidin-1-yl)pyridazin-3-one]
7 | 138 | 2.38 | C[C@@H]1CN(c2cnn(Cc3c(-c4ccc(F)cc4F)nnn3C)c(=O)c2)C[C@H](C)O1 [Example 58, 2-[[5-(2,4-difluorophenyl)-3-methyl-triazol-4-yl]methyl]-5-[(2R,6S)-2,6-dimethylmorpholin-4-yl]pyridazin-3-one]
6.4 | 82 | 1.82 | Cn1nnc(-c2ccc(Cl)cc2F)c1Cn1ncc(N2CC(OCC(F)F)C2)cc1=O [Example 54, 2-[[5-(4-chloro-2-fluoro-phenyl)-3-methyl-triazol-4-yl]methyl]-5-[3-(2,2-difluoro-ethoxy)azetidin-1-yl]pyridazin-3-one]
5.8 | 111 | 2.11 | Cn1nnc(-c2ccc(Cl)cc2F)c1Cn1ncc(N2CC(Oc3ccnc(Cl)c3)C2)cc1=O [Example 55, 2-[[5-(4-chloro-2-fluoro-phenyl)-3-methyl-triazol-4-yl]methyl]-5-[3-[(2-chloro-4-pyridyl)oxy]azetidin-1-yl]pyridazin-3-one]
5.4 | 69 | 1.69 | Cn1nnc(-c2ccc(Cl)cc2F)c1Cn1ncc(N2CC(OC(F)F)C2)cc1=O [Example 53, 2-((5-(4-chloro-2-fluoro-phenyl)-3-methyl-triazol-4-yl)methyl)-5-(3-(difluoromethoxy)azetidin-1-yl)pyridazin-3-one]
4.3 | 125 | 2.25 | COc1ncc(-c2cnn(Cc3c(-c4ccc(Cl)cc4F)nnn3C)c(=O)c2)cc1Cl [Example 69, 2-((5-(4-chloro-2-fluoro-phenyl)-3-methyl-triazol-4-yl)methyl)-5-(5-chloro-6-methoxy-3-pyridyl)pyridazin-3-one]
4.1 | 55 | 1.55 | Cn1nnc(-c2ccc(Cl)cc2F)c1Cn1ncc(N2CC(Oc3ccc(Cl)nc3)C2)cc1=O [Example 52, 2-[[5-(4-chloro-2-fluoro-phenyl)-3-methyl-triazol-4-yl]methyl]-5-[3-[(6-chloro-3-pyridyl)oxy]azetidin-1-yl]pyridazin-3-one]
2.6 | 52 | 1.52 | COc1ccc(-c2cnn(Cc3c(-c4ccc(Cl)cc4F)nnn3C)c(=O)c2)cc1 [Example 61, 2-((5-(4-chloro-2-fluoro-phenyl)-3-methyl-triazol-4-yl)methyl)-5-(4-methoxyphenyl)pyridazin-3-one]
2.2 | 42 | 1.42 | COc1cc(-c2cnn(Cc3c(-c4ccc(Cl)cc4F)nnn3C)c(=O)c2)ccn1 [Example 63, 2-((5-(4-chloro-2-fluoro-phenyl)-3-methyl-triazol-4-yl)methyl)-5-(2-methoxy-4-pyridyl)pyridazin-3-one]
